Test results reported in patent US10383880B2 (Reset Therapeutics, Inc., priority 2012, dated 2019).

These compounds were tested on Per2-dLuc U2OS reporter cells (assay: Per2 assay for evaluating the potency of test compounds (high-throughput circadian assay)). Conditions: Homo sapiens, U2OS, stable U2OS reporter cells harboring Per2-dLuc; luminescence monitored over 4-5 days at 35° C.
Assay type: cell-based
Outline: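 After 24 h culture, U2OS cells carrying Per2-dLuc were serum-shock synchronized into explant medium with 1.0 mM luciferin (10 mM HEPES pH 7.0) and compound in 0.5% DMSO. Luminescence was recorded over 4–5 days at 35 °C. Circadian period, amplitude and phase were derived, and EC50 calculated.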
Compound `CS(=O)(=O)N(CC(O)Cn1c2ccccc2c2ccccc21)CC1CC2CCC1C2` (centres unmarked) [Compound 75, N-(3-(9H-Carbazol-9-yl)-2-hydroxypropyl)-N-(bicyclo[2.2.1]heptan-2-ylmethyl)methanesulfonamide] has an EC50 of 842 nM.
Work on `CN1CCCN(CC(O)Cn2c3ccc(F)cc3c3cc(F)ccc32)S1(=O)=O` (centres unmarked) [Compound 169, 2-(3-(3,6-Difluoro-9H-carbazol-9-yl)-2-hydroxypropyl)-6-methyl-1,2,6-thiadiazinane-1,1-dioxide] yielded an EC50 of 504 nM.
`CS(=O)(=O)N(CC(O)Cn1c2ccccc2c2ccccc21)C1(C#N)CC1` (centres unmarked) [Compound 125, N-(3-(9H-Carbazol-9-yl)-2-hydroxypropyl)-N-(1-cyanocyclopropyl)methanesulfonamide] showed an EC50 of 2610 nM.
With `CS(=O)(=O)N(CC(O)Cn1c2ccccc2c2ccccc21)C1CC(F)C1` (centres unmarked) [Compound 147, N-(3-(9H-Carbazol-9-yl)-2-hydroxypropyl)-N-(3-fluorocyclobutyl)methanesulfonamide] the EC50 was 980 nM.
`CC(O)(CN1CCCS1(=O)=O)Cn1c2ccc(F)cc2c2cc(F)ccc21` (centres unmarked) [Compound 115, 2-(3-(3,6-Difluoro-9H-carbazol-9-yl)-2-hydroxy-2-methylpropyl)-isothiazolidine-1,1-dioxide] was tested, and the EC50 was 232 nM.
Compound `CN(CC(O)Cn1c2ccc(F)cc2c2ccc(F)cc21)S(C)(=O)=O` (centres unmarked) [Compound 103, N-(3-(2,6-Difluoro-9H-carbazol-9-yl)-2-hydroxypropyl)-N-methylmethanesulfonamide] has an EC50 of 2210 nM.
`CN1CCN(CC(C)(O)Cn2c3ccc(F)cc3c3cc(F)ccc32)S1(=O)=O` (centres unmarked) [Compound 174] gave an EC50 of 80 nM.
`CS(=O)(=O)N(CC(O)Cn1c2ccc(F)cc2c2cc(F)ccc21)c1ccc(OC(F)F)cc1` (centres unmarked) [Compound 206, N-(3-(3,6-Difluoro-9H-carbazol-9-yl)-2-hydroxypropyl)-N-(4-(difluoromethoxy)phenyl)methanesulfonamide] showed an EC50 of 2850 nM.
In the case of `CN(CC(O)Cn1c2ccc(F)cc2c2c(F)cccc21)S(C)(=O)=O` (centres unmarked) [Compound 110, N-(3-(3,5-Difluoro-9H-carbazol-9-yl)-2-hydroxypropyl)-N-methylmethanesulfonamide], the EC50 is reported as 3630 nM.
Compound `CN1CCN(CC(O)Cn2c3ccc(F)cc3c3cc(F)ccc32)S1(=O)=O` (centres unmarked) [Compound 173] has an EC50 of 86 nM.
With `O=S1(=O)CCCCN1CC(O)Cn1c2ccc(F)cc2c2cc(F)ccc21` (centres unmarked) [Compound 86, N-(3-(3,6-Difluoro-9H-carbazol-9-yl)-2-hydroxypropyl)-1,2-thiazinane 1,1-dioxide] the EC50 was 46 nM.
